This note sets out measurements from patent publication US4069223A, “4-Aminomethyl-1-(3,3,3-triarylpropyl)-4-arylpiperidine and derivatives thereof” (G. D. Searle & Co., priority 1977, dated 1978).

Assay [1] has as its system castor oil induced diarrhea. The assay can be described thus: Castor oil induced diarrhea in the rat. The settings on record: for ED50: Rattus norvegicus, po, 1 hour before castor oil; for Potency: relative to diphenoxylate hydrochloride. Type of assay: in vivo, Charles River male rats. As to the method:
Adult Charles River male rats were fasted in community cages for 24 hours prior to the test, with free access to water. The compound was administered intragastrically (suspended on 0.5% methycellulose) one hour prior to the administration of castor oil at the dose of 1.0 ml/rat intragastrically. The rats were then observed for the presence or absence of diarrhea, at hourly intervals for up to 8 hours past administration of castor oil. The median effective dose values at each hourly interval were calculated for the compound using the method of Berkson (1953). […] For example:
Comparative Oral Antidiarrheal Potency and Duration of 4-aminomethyl-1-1-(3,3,3-triphenylpropyl)-4-phenylpiperidine hydrochloride (Compound A) to Diphenoxylate hydrochloride in Rat Castor Oil Diarrhea Test.

Assay [2] deals with mouse. The assay can be described thus: Tail clip test (analgesic effect). Type of assay: in vivo. The settings on record: 100 mpk, intragastric. As to the method:
The assessment of the analgesic effect of the present compounds was conducted in the tail clip test.
A specific clip is applied to the base of the tail of the mouse (adult male weighing 18-25 grams) and the time for the animal to turn around to bite at it is measured. The sensitivity of each mouse is determined one-half hour prior to drug administration. Only those mice attempting to bite the clip are included in the experiment. The test compound is then administered intragastrically and the response to placement of the clip is determined at 30, 60, 90 and 120 minutes after treatment. A response is considered positive if the animal takes more than 2 times the pre-drug time to bite at the clip at any of these time intervals. A test compound is considered active when 50 percent or more of the animals used show a positive response.

`Cl.NCC1(c2ccccc2)CCN(CCC(c2ccccc2)(c2ccccc2)c2ccccc2)CC1` [Compound A, 4-aminomethyl-1-(3,3,3-triphenylpropyl)-4-phenylpiperidine hydrochloride]: the ED50 in assay [1] (2 hours after castor oil, intragastric) came out at 3.53 mg/kg; in assay [1] (3 hours after castor oil, intragastric) it was 4.24 mg/kg; in assay [1] (4 hours after castor oil, intragastric), 5.4 mg/kg; in assay [1] (5 hours after castor oil, intragastric), 5.58 mg/kg; in assay [1] (6 hours after castor oil, intragastric), 5.79 mg/kg; in assay [1] (7 hours after castor oil, intragastric), 7.48 mg/kg. Further, the 50% effect level in assay [1] (8 hours after castor oil, intragastric) (ED50) was put at a dose of 7.48 mg/kg. Further, the “inhibition of gastrointestinal motility” value in assay [1] (rat castor oil test, intragastric) is “found to inhibit gastrointestinal motility”. In addition, the Potency in assay [1] (2 hours after castor oil) was 0.06; in assay [1] (3 hours after castor oil), 0.11; in assay [1] (4 hours after castor oil), 0.16; in assay [1] (5 hours after castor oil), 0.24; in assay [1] (6 hours after castor oil), 0.29; in assay [1] (7 hours after castor oil), 0.25. This molecule returned a Potency in assay [1] (8 hours after castor oil) of 0.26. In assay [2], the analgesic effect entry was “weak analgesic effect”.
